In patent US20070191372A1, “Dna-targeted benzotriazine 1,4-dioxides and their use in cancer therapy” (Auckland Uniservices Limited, priority 2002, published 2007):

Assays:
[1] = tested on: human colon carcinoma HT-29; assay: Clonogenic assay under aerobic and hypoxic conditions, HT-29; format: cell-based; conditions: HT 29 cells; for C10 hypoxic: 60 min drug exposure, concentration reducing plating efficiency to 10% of controls; for HCR: ratio of C10 under aerobic and hypoxic conditions; for RHT: ratio of hypoxic TPZ C10 to hypoxic compound C10
Protocol: (§1) Evaluation of the Cytotoxicity of Compounds by Clonogenic Assay Under Aerobic and Hypoxic Conditions.
(§2) Compounds representative of the invention were evaluated under both aerobic and hypoxic conditions in clonogenic assays, using three cell lines: human colon carcinoma HT-29, murine SCCVII, and human lung adenocarcinoma LXFL. Clonogenic survival was determined using aerobic and hypoxic SCCVII cell suspensions. Drug exposures were performed using continuously stirred and gassed single cell suspensions (10^6 cells/mL) at 37° C., equilibrated with 5% CO2 in air or N2 for 60 min before drug addition. After a 60 min drug exposure cells were washed by centrifugation and plated to determine colony formation Cytotoxicity was measured as the concentration required to reduce plating efficiency to 10% of controls (C10). The hypoxic cytotoxicity ratio (HCR) was determined as the ratio of the C10 values under aerobic and hypoxic conditions. The relative hypoxic toxicity (RHT) was determined as the ratio of hypoxic TPZ C10 to hypoxic BTO C10. Abbreviations used in Table 2 are:
(§3) C10=The concentration of drug (in micromolar) to reduce viable cell numbers to 10% of those of control cell cultures grown under the same conditions but not exposed to drug
(§4) RHT=Relative hypoxic toxicity is defined as the ratio of concentrations of Tirapazamine/test compound to give equal cell killing under hypoxic conditions.
(§5) HCR=Hypoxic cytotoxicity ratio is defined as the ratio of drug concentrations under aerobic and hypoxic condition to produce equal cell survival (10%) determined by clonogenic assay

murine SCCVII = assay: Clonogenic assay under aerobic and hypoxic conditions, SCCVII; format: cell-based; conditions: SCVIII cells; for IC90: Mus musculus, 1 h, hypoxic, 60 min drug exposure, SN (hypoxic), read-out: C10 hypoxic; for HCR: ratio of C10 under aerobic and hypoxic conditions; for RHT: ratio of hypoxic TPZ C10 to hypoxic compound C10
Protocol: as §1, §2, §3, §4, §5

[2] = tested on: human lung adenocarcinoma LXFL; assay: Clonogenic assay under aerobic and hypoxic conditions, LXFL; format: cell-based; conditions: LXFL cells; for C10 hypoxic: 60 min drug exposure; for HCR: ratio of C10 under aerobic and hypoxic conditions; for RHT: ratio of hypoxic TPZ C10 to hypoxic compound C10
Protocol: as §1, §2, §3, §4, §5

[3] = tested on: human colon carcinoma HT-29; assay: Proliferation assay (IC50) under aerobic and hypoxic conditions, HT-29; format: cell-based; conditions: for RHT: HT-29, ratio Tirapazamine/test compound under hypoxic conditions; for HCR: HT-29, ratio of IC50 under aerobic and hypoxic conditions; for IC50: Homo sapiens, HT-29, hypoxic (anoxia <0.001% O2), 4 h exposure
Protocol: (§6) Evaluation of the Cytotoxicity of Compounds by Proliferation Assay (IC50) Under Aerobic and Hypoxic Conditions.
(§7) Compounds representative of the invention were evaluated under both aerobic and hypoxic conditions in a proliferation assay (IC50), using two cell lines: human colon carcinoma HT-29, and human cervical carcinoma SiHa.
(§8) Drug exposures were performed in 96-well plates (Nunc) using either a 37° C. humidified incubator (20% O2, 5% CO2) or in the incubator compartment (37° C.) of an anaerobic chamber (Shell Lab) where palladium catalyst scrubbed gas (90% N2, 5% H2, 5% CO2) ensures severe anoxia (<0.001% O2). For each experiment, compounds were simultaneously tested under both oxic and hypoxic conditions against the HT-29 cell line and included TPZ as an independent internal control at the front and back of the assay (n=2). Final data was pooled from a series of seven independent experiments and is calculated using inter-experimental means. In all cases, 8-methyl-5-nitroquinoline was used as a second internal control to confirm that strict hypoxia was present during the experiment. (Siim et al. Br. J. Cancer 1994, 70, 596-603). Cell cultures were grown in αMEM (Gibco) containing 5% heat inactivated FCS and maintained in exponential growth phase. For each individual experiment an appropriate number of cells were seeded (HT-29=1000) into wells in αMEM÷10% FCS+10 mM added glucose+100 μM 2′-deoxycytidine (2′dCyd), and allowed to attach for 3 h. High glucose (final concentration 17 mM) and the presence of 2′-dCyd minimize hypoxia-induced cell cycle arrest. Replicates were then exposed to BTOs, using 2-fold serial dilutions in triplicate, for a further 4 h. Subsequently cells were washed free of compound using complete media (without glucose/2′-dCyd) and allowed to grow for 5 (oxic) or 6 (anoxic) days. Plates were stained as described previously (Wilson et al., J. Med. Chem. 1989, 32, 31-38) and IC50 values determined.
(§9) IC50=The concentration of drug (in micromolar) to reduce viable cell numbers to 50% of those of control cell cultures grown under the same conditions but not exposed to drug
as §4
(§10) HCR=Hypoxic cytotoxicity ratio is defined as the ratio of drug concentrations under aerobic and hypoxic condition to produce equal cell survival (50%) determined by proliferation assay

[4] = tested on: human cervical carcinoma SiHa; assay: Proliferation assay (IC50) under aerobic and hypoxic conditions, SiHa; format: cell-based
Protocol: as §6, §7, §8, §9, §4, §10

[5] = cited from earlier work

IC90 (murine SCCVII) [nM] | IC50 [3] [nM] | IC50 ([4]; Homo sapiens, hypoxic, 4 h exposure) [nM] | Structure (SMILES) | C10 hypoxic [1] [µM] | HCR [1] | RHT [1] | HCR (murine SCCVII) | RHT (murine SCCVII) | C10 hypoxic [2] [µM] | HCR [2] | RHT [2] | RHT [3] | HCR [3] | RHT ([4]; ratio Tirapazamine/test compound under hypoxic conditions) | HCR ([4]; ratio of IC50 under aerobic and hypoxic conditions) | activity under aerobic or hypoxic conditions [5]
480 | 16 |  | [O-][n+]1nc(NCCCCCCNc2c3ccccc3nc3ccccc23)[n+]([O-])c2ccccc21 [Compound 11, N^1-(9-Acridinyl)-N^6-(1,4-dioxido-1,2,4-benzotriazin-3-yl)-1,6-hexanediamine] | 0.12 | 83.0 | 416 | 20.0 | 16.7 | 0.04 | 35.0 | 450 | 370 | 38 |  |  | 
300 | 65 | 31 | O=C(NCCCNCCCNc1n[n+]([O-])c2ccccc2[n+]1[O-])c1cccc2cc3ccccc3nc12 [Compound 30, N-[3-({3-[(1,4-Dioxido-1,2,4-benzotriazin-3-yl)amino]propyl}amino)propyl]-4-acridinecarboxamide] | 0.9 | 33.0 | 78 | 21.3 | 20 | 0.4 | 12.5 | 50 | 90 | 167 | 121 | 41 | 
 |  |  | Nc1nc2ccccc2[n+]([O-])n1 [SR 4317] |  |  |  |  |  |  |  |  |  |  |  |  | inactive
 |  |  | Nc1nnc2ccccc2n1 [SR 4330] |  |  |  |  |  |  |  |  |  |  |  |  | inactive
